Source: US4042702A, “Halogen pyrazole derivatives, a method for producing these halogen pyrazole derivatives, medicaments containing and methods of using them” (Byk Gulden Lomberg Chemische Fabrik GmbH, priority 1973, dated 1977)

How the values were obtained:
[1] = tested on: ultraviolet erythema of the skin on the back of the guinea pig; test: Retardation of the UV-Erythema (skin on the back of the guinea pig); assay type: in vivo; settings: for ED25: Cavia porcellus, light or radiation study, po, guinea pig, retardation of 25 % 5 hours after irradiation; for relative effect (Retardation of the UV-Erythema): relative to phenyl butazone (I) = 1,0
Protocol: (§1) The antiinflammatory action of the standard preparation and the compounds of this invention, respectively, was determined
on the retardation at the ultraviolet erythema of the skin on the back of the guinea pig [Winder et al. Arch. int. Pharmacodyn. 116 (1958) 261], wherein in table 1 those doses are shown which cause a retardation of 25 % 5 hours after irradiation;

[2] = tested on: granulation tissue formation (cotton granuloma) in rats; test: Retardation of the granulation tissue formation (cotton granuloma, chronic inflammation model); assay type: in vivo, rat; settings: for ED20: po, 168 h, 7 × p.o., rats, 20% inhibition, cotton granuloma; for relative effect (Retardation of the granulation tissue formation): relative to phenyl butazone (I) = 1.0
Protocol: as §1
on a chronic inflammation model (cotton granuloma) wherein the influence of the compounds on the granulation tissue formation after subcutaneous implantation of cotton plugs in rats was studied after daily administration on 7 following days in taking pattern from the method described by Winter et al. [J. Pharmacol. exp. Therap.

[3] = tested on: carrageenin edema of the rear paw of the rat; test: Retardation of the Carrageenin Edema of the rear paw of the rat; assay type: in vivo; settings: for ED25: po, rat, single administration, mean retardation of 25 % 3 and 5 hours after administration; for relative effect (Retardation of the Carrageenin Edema): relative to phenyl butazone (I) = 1.0
Protocol: as §1
on the retarding inflammation at the carrageenin edema of the rear paw of the rat [Winter et al. Proc. Soc. exp. Biol. Med. 111 (1962) 544], wherein in table 2 those doses are shown which cause a mean retardation of 25 % 3 and 5 hours after single administration of the substance to be tested;

rats = settings: 7 × p.o., 5 % of animals died within 10 days
in vivo [4] = settings: rat, po
in vivo [5] = settings: mouse, po

SMILES | ED25 [1] | relative effect (Retardation of the UV-Erythema) [1] | ED20 [2] | relative effect (Retardation of the granulation tissue formation) [2] | ED25 [3] | relative effect (Retardation of the Carrageenin Edema) [3] | LD5 (rats) | selectivity ratio (in vivo [4]) | LD50 at 240 h (in vivo [5]) | selectivity ratio (in vivo [5])
CCCCC1C(=O)N(c2ccccc2)N(c2ccccc2)C1=O [I, phenyl butazone, reference compound] | 1 mg/kg | 1,0 | 100 mg/kg/day | 1.0 | 10 mg/kg | 1.0 | – | – | – | –
O=C(O)Cc1c(-c2ccc(Cl)cc2)nn(-c2ccccc2)c1Cl [II, 5-chloro-3-p-chlorophenyl-1-phenyl-pyrazole-4-acetic acid] | 0.15 mg/kg | 6.7 | 3 mg/kg/day | 33.3 | 1.5 mg/kg | 6.7 | 18 mg/kg/die | 6 | 530 mg/kg | 353
O=C(O)Cc1c(-c2ccccc2)nn(-c2ccccc2)c1Cl [III, 5-chloro-1,3-diphenyl-pyrazole-4-acetic acid] | 0.25 mg/kg | 4.0 | 8 mg/kg/day | 12.5 | 1 mg/kg | 10.0 | 100 mg/kg/die | 12.5 | 1200 mg/kg | 1200
COc1ccc(-c2nn(-c3ccccc3)c(Cl)c2CC(=O)O)cc1 [IV, 5-chloro-3-p-methoxyphenyl-1-phenyl-pyrazole-4-acetic acid] | – | – | – | – | 12 mg/kg | 0.8 | – | – | 1100 mg/kg | 91.7
